The text below walks through data of patent US20210186997A1, “METHODS AND COMPOSITIONS FOR INCREASING NAD LEVEL IN MAMMALS WITH D-RIBOSE AND VITAMIN B3” (Bioenergy Life Science, Inc., priority 2018, published 2021).

Structures are written as SMILES. Entries after “also recorded” stand apart in the source; their conditions may differ.

The test system of one assay is NAD levels. Put plainly: Experiment 1: NAD levels in blood by LC/MS after bolus administration. The assay is classed as in vivo, Sprague-Dawley rats. Particulars: for NAD levels in blood: male rats, bolus 100 mg per kg of body weight, 0.25-24 hours after feeding, compared to baseline, FIG. 1. As to the method: Four groups of four male Sprague-Dawley rats were each bolus administered the different compounds identified in the table below at a dosage of 100 mg per kg of body weight:
A blood sample of 0.1 ml was drawn from each rat of each group at increments of 0.25, 0.5, 1, 2, 4, 8 and 24 hours after feeding. Each of the blood samples were then measured by Liquid Chromatography/Mass Spectrometry (LC/MS) for NAD levels. The measured NAD levels are charted in FIG. 1, with each data point being the average of the four rats of each group.

In another assay the test system is NAD+. Put plainly: Experiment 3: NAD+ in blood by LC/MS/MS, oral dosing twice daily for five days. Type of assay: in vivo, Sprague-Dawley male rats. The following applies: Nicotinamide control (coated nicotinamide 108 mg/kg PO BID), relative to RiaGev dose-response line, FIG. 11. How it is done: Eighteen Sprague-Dawley male rats were selected as test animals in the study, with three rats for each of six treatment groups. Sprague-Dawley male rats were selected because they have been widely used in similar experiments with reliable results. The use of three rats per group offers the minimum number required to calculate useful means and standard deviations for graphical representation of the data. For five consecutive days, the rats were dosed at approximately 7:30-8:30 a.m. and at approximately 4:30-5:45 p.m. Blood was collected approximately 0.5 to 1.5 hours following each p.m. dosing and immediately processed and assayed for NAD+, NMN, and NR by LC/MS/MS. The timing of the supplementation doses was chosen to mimic behavior in humans and other non-nocturnal mammals (i.e., diurnal mammals) of eating breakfast in the morning and dinner in the early evening by administering the doses to the animals at around those times. […] Thus the evening sampling time for the rats would correspond to the morning for humans and other diurnal mammals. The animals were humanely euthanized after the final blood draw and representative samples of the liver, biceps muscle, peripheral adipose tissue, and whole brain were collected, snap frozen, extracted, and assayed for NAD+, NMN, and NR by LC/MS/MS. […]

For a further assay, the system named is NR levels. Kind of assay: Experiment 1: NR levels in blood by LC/MS after bolus administration. The assay is classed as in vivo, Sprague-Dawley rats. Particulars: male rats, bolus 100 mg/kg, 0.25-24 hours after feeding, compared to baseline, FIG. 2. How it is done: Four groups of four male Sprague-Dawley rats were each bolus administered the different compounds identified in the table below at a dosage of 100 mg per kg of body weight: [table] The blood drawn from each of the groups at the increments referenced above were also measured by LC/MS for NR levels. The measured NR levels are charted in FIG. 2, with each data point being the average of three animals of the same sex.

As for `NC(=O)c1ccc[n+]([C@@H]2O[C@H](CO)[C@@H](O)[C@H]2O)c1` [Nicotinamide Riboside (NR), Nicotinamide Riboside], in the assay on NAD levels (after consumption), the “time to peak blood NAD level” value was “about 8 hours”. Further, the “NAD levels in blood” value in the assay with NAD levels is “highest peak value”.
With `NC(=O)c1cccnc1` [Nicotinamide], the “blood NAD concentration change over its base (water control) level” value with NAD+ is listed as “outside of the line”.
For the compound `O=C[C@H](O)[C@H](O)[C@H](O)CO` [D-ribose], in the assay on NR levels, the “NR levels in blood” value is given as “enhance NR levels”. Besides, the “NAD levels in blood” value in the assay on NAD levels is given as “elevated NAD levels; also recorded: increases NAD levels”.
Consider `O=C(O)c1cccnc1` [Niacin, Nicotinic Acid (Niacin)], for which the “NR levels in blood” value in the assay on NR levels is “enhance NR levels”. Moreover, the “NAD levels in blood” value in the assay on NAD levels is reported as “elevated NAD levels”.
